Literature values, collected in patent US11819485B2, “Levodopa fractionated dose composition and use” (AVION PHARMACEUTICALS, LLC, priority 2018, dated 2023).
Like-named read-outs stand apart in the source and are kept apart here.

Key:
[1] = not given; remark: listed apart in the source
[2] = steady intravenous dose, plasma LD kept within efficacy-with-no-MRCs range, as long as the infusion lasted

solubility in water: poorly soluble in water
SMILES: N[C@@H](Cc1ccc(O)c(O)c1)C(=O)O [LD, Levodopa]
duration of effect of each LD dose ([1]; beginning of the disease, orally administered LD): 6 h
duration of effect of each dose ([1]; early stages of the disease): approximately 6 hours
duration of effect of each dose ([1]; ultimately, as PD progresses): about 1.5 hours
antiparkinsonian effect and dyskinesias during infusion [2]: full antiparkinsonian effect (no wearing off) without any dyskinesias
